Measured values as given in patent US7202040B2, “Method for screening compounds which change the binding properties of a protein with a ligand” (Takeda Pharmaceutical Company Limited, priority 2001, dated 2007).

Experiments:
[1] = test system: other receptor expression cells; assay: cAMP production inhibitory activity on other receptor expression cells (specificity check); assay type: cell-based; conditions: receptor-specific
Protocol: The amino acid sequence of GPR34 is known to have low homology to the amino acid sequence of the platelet-activating factor receptor or the uridine diphosphate glycoside. Thus, various compounds including platelet-activating factor and uridine diphosphate glycoside, which are ligands to the receptors showing homology to GPR34, were administered to the GPR34-expressed CHO cells to examine the cAMP production inhibitory activity of these compounds on the GPR34-expressed CHO cells by the method shown in (1-4) described above.
The effect was not noted on the other receptor expression cells but was receptor-specific.

[2] = biological target: T1, GPR34-expressed CHO cells (Homo sapiens, UniProt Q9UPC5); assay: Intracellular cAMP production inhibitory activity using GPR34-expressed CHO cells (forskolin-stimulated, cAMP EIA); assay type: cell-based; conditions: 2 μM forskolin, FIG. 1
T1 construct: expressed in transfected cells
Protocol: The GPR34-expressed CHO cells prepared in (1-2) described above and selected in (1-2) described above were plated on a 24-well plate in 6×10^4 cells/well followed by incubation for 48 hours. The cells were washed with αMEM medium (pH 7.5) containing 0.2 mM 3-isobutyl-methylxanthine, 0.05% BSA and 20 mM HEPES (hereinafter αMEM medium (pH 7.5) containing 0.2 mM 3-isobutyl-methylxanthine, 0.05% BSA and 20 mM HEPES is referred to as the reaction buffer). Thereafter, 0.5 mL of the reaction buffer was added and the mixture was kept warm for 30 minutes in an incubator. The reaction buffer was removed and 0.25 mL of fresh reaction buffer was replenished to the cells. Then, 0.25 mL of the reaction buffer containing a sample and 2 μM forskolin was added to the cells, followed by reacting at 37° C. for 30 minutes. […] The cAMP level in the extract was quantified using the same kit. Based on this measurement data, the cAMP production inhibitory activity was calculated based on the equation shown below and expressed in terms of percentage to the control group. The activity in the group added with sample was calculated using each control value set on the same plate. % of control=(X−C)/(T−C)×100 wherein • X: cAMP level in the group added with sample • T: mean value of the cAMP levels in 3 wells of the groups without sample addition and with forskolin stimulation […]

T1 sequence (Q9UPC5 whole entry): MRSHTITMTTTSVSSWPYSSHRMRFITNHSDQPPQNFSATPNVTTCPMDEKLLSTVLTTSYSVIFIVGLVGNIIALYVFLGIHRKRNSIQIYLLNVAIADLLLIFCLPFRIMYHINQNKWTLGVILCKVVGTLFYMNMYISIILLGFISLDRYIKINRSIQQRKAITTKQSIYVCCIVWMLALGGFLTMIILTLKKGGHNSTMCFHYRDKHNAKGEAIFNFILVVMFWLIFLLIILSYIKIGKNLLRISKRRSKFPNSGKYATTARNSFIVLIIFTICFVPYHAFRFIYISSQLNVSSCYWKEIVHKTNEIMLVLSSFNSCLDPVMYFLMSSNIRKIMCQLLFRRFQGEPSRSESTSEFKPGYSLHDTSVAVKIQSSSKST

Substance	cAMP production inhibitory effect on other receptor expression cells [1]	cAMP production inhibitory activity ([2]; 37° C. 30 minutes)	cAMP production inhibitory activity ([2]; in a higher concentration)
lysophosphatidylserine	not noted	marked activities	–
phosphatidylserine	not noted	–	marked activities
